Results as given in US9463216B2 (priority 2012, dated 2016).

Experiments:
[1] = test system: PA uptake by J774 macrophages, ANTXR2-expressing (CCHO) and ANTXR2-null (PR230) chinese hamster ovary cells; type: cell-based, chinese hamster (CHO cells)
recombinant LT (PA + LF) = recombinant LT (PA + LF) (Bacillus anthracis, UniProt P13423); set-up: species or system BALB/cJ mice; settings: mouse, in vivo
PA [2] = type: biochemical, B. anthracis
PA [3] = biological target: PA (Bacillus anthracis, UniProt P13423); type: binding, B. anthracis
PA (Bacillus anthracis, UniProt P13423), sequence (P13423 30-764 limits assumed): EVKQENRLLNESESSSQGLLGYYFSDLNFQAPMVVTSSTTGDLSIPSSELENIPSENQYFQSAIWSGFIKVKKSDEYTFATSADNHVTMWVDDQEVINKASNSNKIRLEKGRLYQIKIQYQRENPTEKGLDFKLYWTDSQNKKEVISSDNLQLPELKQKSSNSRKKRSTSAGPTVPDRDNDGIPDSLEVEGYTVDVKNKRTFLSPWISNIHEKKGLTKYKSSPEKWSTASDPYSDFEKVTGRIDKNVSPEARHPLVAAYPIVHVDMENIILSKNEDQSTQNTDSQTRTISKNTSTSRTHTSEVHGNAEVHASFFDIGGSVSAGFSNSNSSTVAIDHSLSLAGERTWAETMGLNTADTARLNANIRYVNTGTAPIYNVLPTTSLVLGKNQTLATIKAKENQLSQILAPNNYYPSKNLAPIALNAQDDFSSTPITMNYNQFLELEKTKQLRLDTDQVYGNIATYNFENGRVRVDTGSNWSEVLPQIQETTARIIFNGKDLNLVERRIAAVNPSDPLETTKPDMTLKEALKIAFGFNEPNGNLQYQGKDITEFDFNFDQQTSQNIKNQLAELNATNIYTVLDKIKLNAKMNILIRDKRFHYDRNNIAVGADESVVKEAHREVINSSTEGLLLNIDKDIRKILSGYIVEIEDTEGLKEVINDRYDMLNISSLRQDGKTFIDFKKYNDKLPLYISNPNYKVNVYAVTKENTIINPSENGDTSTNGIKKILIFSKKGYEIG

lethal toxin (PA + LF) = lethal toxin (PA + LF) (Bacillus anthracis, UniProt P13423)
lethal toxin (PA + LF), sequence (P13423 30-764 limits assumed): as above

[4] = test system: J774 macrophages and PR230 cells; type: cell-based, chinese hamster (PR230 cells)

recombinant LT (PA + LF), sequence (P13423 30-764 limits assumed): as above

Compound | effect on cell uptake of PA [1] | protection of mice from LT (recombinant LT (PA + LF)) | effect on PA-binding to ANTXR2 or LF, PA oligomerization, or channel formation in vitro (PA [2]) | form complexes with PA (PA [3]) | LT inhibitory activity of metal ion chelates (lethal toxin (PA + LF)) | inhibit LT-mediated cytolysis in bone marrow macrophage cells (lethal toxin (PA + LF)) | inhibition of PA oligomers (lethal toxin (PA + LF)) | also measured
γ-DLPGA [Compound 1] | prevent proper cell uptake | completely protected | do not affect | can form complexes with PA | only the Fe(III) chelate had LT inhibitory activity | could inhibit | equally inhibited | affinity for PA, higher than compound 2 (PA [3]): 10 fold
N[C@@H](CCC(=O)O)C(=O)O [L-Glu, reference compound] | – | did not protect mice from LT | – | – | – | – | – | –
Fe(III) [reference compound] | – | – | – | – | – | – | – | concentration at which Fe(III) alone may inhibit LT (lethal toxin (PA + LF)): 10 mM; inhibitory Fe(III) concentration relative to concentrations effective in the Fe(III) co-complexes of compounds 1, 2, and 3 (lethal toxin (PA + LF)): 10^3-10^4 fold; inhibitory activity of Fe(III) alone (lethal toxin (PA + LF)): did not possess inhibitory activity
γ-DPGA [Compound 2] | prevent proper cell uptake | completely protected | do not affect | can form complexes with PA | only the Fe(III) chelate had LT inhibitory activity | could inhibit | equally inhibited | stimulation of PA internalization after pretreatment with Cap D [1]: eliminates the stimulation of PA internalization; binding to J774 macrophages and PR230 cells [4]: equal affinity; binding to Pronase-treated PR230 cells [4]: significantly reduced; inhibitory activity after treatment with Cap D (recombinant LT (PA + LF)): abolished the inhibitory activity; formation of co-complexes with PA after pretreatment with Cap D (PA [3]): prevents formation of co-complexes with PA
bovine serum albumin [reference compound] | – | did not protect mice from LT | – | – | – | – | – | –
